Experimental data published in patent publication US20260256734A1, “COMPOSITIONS COMPRISING SILYMARIN (OR) CURCUMIN AND METFORMIN, METHODS AND APPLICATIONS THEREOF” (ACUBIOSYS PRIVATE LIMITED, priority 2022, published 2026).

Key:
[1] = system: inflammatory markers (IL-17, IL-1β and IL-23) in IMQ-induced differentiated HaCaT cells; assay: In vitro IMQ-induced psoriatic model, inflammatory markers in conditioned media; assay type: cell-based; details: IMQ 100 μM, formulation in culture media 48 hr, mean ± S.D.
From the text: This study was designed to investigate the effect of a Metf+SMR and Metf+SMR hydro-gel formulation on an IMQ-induced psoriasis-like mouse model. The composition of the hydrogel formulation prepared by using 1.5% crosslinked polyacrylic acid polymer and 1.5% triethanolamine is provided. In doing so, the Applicant expected to obtain supportive evidence of a role for the formulation in treating psoriasis. For that the Applicant has developed hydrogel-based formulations: 1. Metformin and 2. Metformin-silybin (Metf+SMR) 3. Metformin-curcumin (Metf+CMR) and studied invitro cell toxicity in A431 cells by MTT assay and invitro IMQ-induced psoriatic modal using HaCaT cells and determined the inflammatory markers (IL-1β, IL-23 and IL-17).
To set up an efficient and consistent model for psoriasis in vitro, differentiated HaCaT cells were used to screen our test formulations. HaCaT cells were incubated with 2 mM calcium chloride (CaCl2) to achieve differentiation. Induction of psoriatic-like inflammation was achieved by treating the cells with Imiquimod (IMQ) ([…]). The differentiation and inflammation were confirmed by microscopic images. After inflammation, the cells were treated with different formulation dissolved in culture media and incubated for 48 hr. Clobetasol cream formulation was used as a positive control. After incubation, the conditioned media was collected and used for estimation of inflammatory markers (IL-17, IL-1β and IL-23).

[2] = system: IMQ-induced psoriasis model in C57BL/6 Mice; assay: IMQ induced psoriatic plaque model, topical hydrogel treatment; assay type: in vivo
Protocol: Hair was shaved along the back of the anesthetized mouse from shoulder to hip by using electric clippers or depilatory cream. Psoriasis-like lesions were induced by a daily topical application of a commercially available IMQ cream (62.5 mg/day for 5 days D1-D5) on the shaved back skin of C57BL/6 mice.
Animals were randomly assigned to the different groups after reaching a maximum score of 4 with respect to erythema, scale, and thickness. Animals that didn't score 4 were excluded from the experiment. Sham psoriasis animals were administered with Vaseline cream; IMQ animals, were only challenged with imiquimod cream, and IMQ animals were treated with a hydrogel that was topically applied using a nylon mesh for even distribution of the hydrogel, for the whole duration of the experiment.
To score the severity of inflammation of the back skin, an objective scoring system was developed based on the clinical Psoriasis Area and severity index (PASI), except that for the mouse model the affected skin area is not taken into account in the overall score. Erythema, scaling, and thickening was scored independently on a scale from 0 to 4:0, none; 1, slight; 2, moderate; 3, marked; 4, very marked. The level of erythema was scored using a scoring table with red taints. The cumulative score (erythema plus scaling plus thickening) served as a measure of the severity of inflammation (scale 0-12).
• 0: None; 1: Slight; 2: Moderate; 3: Marked; 4: Very Marked.
One of the important characteristic feature of psoriasis and the psoriasis-like skin inflammation was abnormal increase of epidermal skin thickness which was measured by vernier calipers.
The IMQ induced, skin tissue sections (H&E stain) were collected after ten days (D1-D10) from all groups.

SMILES: CC(C)Cn1cnc2c(N)nc3ccccc3c21 [IMQ, Imiquimod]
- IL-1β (pg/mL), mean concentration [1]: 93.63 ± 2.87 pg/mL
- IL-17 (pg/mL), mean concentration [1]: 99.82 ± 3.03 pg/mL
- IL-23 (pg/mL), mean concentration [1]: 98.73 ± 3.27 pg/mL
- epidermal skin thickness with IMQ only ([2]; increased from 1.15 mm, IMQ only applied topically): 2.22 mm
- cumulative score on day 5 ([2]; scale 0-12, day 5, IMQ only): 12
- cumulative score (erythema+scaling+skin thickness) on day 10 ([2]; scale 0-12, day 10): 12
- spleen size (spleen index) ([2]; treatment D6-D10): 15 mg/g
